Columns and labels:
[1] = target: G-protein coupled receptor 35 (Homo sapiens, UniProt Q9HC97); assay: Agonist activity at GPR35 (unknown origin) expressed in human U2OS cells coexpressing beta-arrestin by GFP reporter gene assay; assay type: cell-based
[2] = target: T1, Neurotensin receptor type 1 (Homo sapiens, UniProt P30989); assay: Agonist activity at NTR1 (unknown origin) expressed in human U2OS cells coexpressing beta-arrestin by GFP reporter gene assay; assay type: cell-based
[3] = target: Neurotensin receptor type 2 (Homo sapiens, UniProt O95665); assay: Agonist activity at NTR2 (unknown origin) expressed in human U2OS cells coexpressing beta-arrestin by GFP reporter gene assay; assay type: cell-based
[4] = target: T1, Neurotensin receptor type 1; assay: Agonist activity at NTR1 (unknown origin) expressed in CHO cells assessed as stimulation of calcium flux relative to neurotensin (8 to 13); assay type: functional, cell-based
[5] = target: T1, Neurotensin receptor type 1; assay: Agonist activity at NTR1 (unknown origin) expressed in CHOK1 cells by beta-arrestin assay; assay type: cell-based, CHO-K1
[6] = target: T1, Neurotensin receptor type 1; assay: Antagonist activity at NTR1 (unknown origin) expressed in human U2OS cells coexpressing beta-arrestin assessed as inhibition of ML314-induced effect by GFP reporter gene assay
[7] = target: T1, Neurotensin receptor type 1
Description: Displacement of [125I]-neurotensin from NTR1 in HUVEC after 1 hr by gamma counting analysis

T1 sequence (P30989 whole entry): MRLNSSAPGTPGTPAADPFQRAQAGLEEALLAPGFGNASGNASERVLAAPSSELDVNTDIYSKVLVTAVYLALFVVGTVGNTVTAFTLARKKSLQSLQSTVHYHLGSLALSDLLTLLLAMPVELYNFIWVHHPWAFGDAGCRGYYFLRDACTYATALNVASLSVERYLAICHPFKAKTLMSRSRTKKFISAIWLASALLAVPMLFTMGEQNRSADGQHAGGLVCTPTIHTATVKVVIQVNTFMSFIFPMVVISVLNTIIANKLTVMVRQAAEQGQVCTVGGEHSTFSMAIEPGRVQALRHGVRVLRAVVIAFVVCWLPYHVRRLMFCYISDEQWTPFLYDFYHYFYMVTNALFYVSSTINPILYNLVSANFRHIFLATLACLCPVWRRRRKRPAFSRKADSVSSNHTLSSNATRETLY
G-protein coupled receptor 35, sequence (Q9HC97 whole entry): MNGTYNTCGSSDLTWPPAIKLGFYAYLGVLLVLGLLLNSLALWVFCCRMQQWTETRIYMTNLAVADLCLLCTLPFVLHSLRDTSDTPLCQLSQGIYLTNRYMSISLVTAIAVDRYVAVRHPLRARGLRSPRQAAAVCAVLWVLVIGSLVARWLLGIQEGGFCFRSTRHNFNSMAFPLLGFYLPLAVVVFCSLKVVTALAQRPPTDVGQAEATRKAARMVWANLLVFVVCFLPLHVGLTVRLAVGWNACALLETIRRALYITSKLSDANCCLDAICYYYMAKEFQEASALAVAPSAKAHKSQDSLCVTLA
Neurotensin receptor type 2, sequence (O95665 whole entry): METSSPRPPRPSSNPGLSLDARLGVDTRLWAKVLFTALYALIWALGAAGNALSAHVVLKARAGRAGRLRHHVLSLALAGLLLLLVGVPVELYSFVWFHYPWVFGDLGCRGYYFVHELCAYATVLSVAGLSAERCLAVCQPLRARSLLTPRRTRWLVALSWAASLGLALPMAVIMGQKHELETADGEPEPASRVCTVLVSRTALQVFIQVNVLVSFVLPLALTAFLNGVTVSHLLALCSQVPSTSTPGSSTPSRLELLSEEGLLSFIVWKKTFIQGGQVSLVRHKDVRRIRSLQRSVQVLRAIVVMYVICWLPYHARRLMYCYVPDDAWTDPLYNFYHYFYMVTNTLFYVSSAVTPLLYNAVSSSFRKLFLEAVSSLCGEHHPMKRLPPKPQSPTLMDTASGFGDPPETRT

## COc1cc2ncnc(N3CCN(c4ccccc4OC)CC3)c2cc1OC
[1]
  EC50: > 40 µM
[2]
  EC50: > 80 µM
[3]
  EC50: > 80 µM

## COc1cccc(OC)c1-c1cc(C(=O)N[C@@H](CC(C)C)C(=O)O)nn1-c1ccnc2cc(Cl)ccc12
[2]
  EC50: 0.75 µM
[4]
  Emax: 63%
[5]
  EC50: > 33 µM

## C=Cc1nc(N2CCN(c3ccccc3OC)CC2)c2cc(OC)c(OC)cc2n1
[1]
  EC50: > 40 µM
[3]
  EC50: > 80 µM

## CCc1nc(N2CCN(c3ccccc3OC)CC2)c2cc(OC)c(OC)cc2n1
[1]
  EC50: > 40 µM
[3]
  EC50: > 80 µM

## COc1cc2nc(C3CCC3)nc(N3CCN(c4ccccc4C)CC3)c2cc1OC
[1]
  EC50: > 40 µM
[3]
  EC50: > 80 µM

## COc1ccccc1CN1CCN(c2nc(C3CC3)nc3cc(OC)c(OC)cc23)CC1
[1]
  EC50: > 40 µM
[3]
  EC50: > 80 µM

## COc1cc2nc(C3CCC3)nc(N3CCN(c4ccccc4F)CC3)c2cc1OC
[1]
  EC50: > 40 µM
[2]
  EC50: 18 µM
[3]
  EC50: > 80 µM

## COc1ccccc1N1CCN(c2nc(C3CCC3)nc3cc4c(cc23)OCO4)CC1
[1]
  EC50: > 40 µM
[3]
  EC50: > 80 µM

## COc1cc2nc(C3CC3)nc(N3CCN(c4ccccc4Cl)CC3)c2cc1OC
[1]
  EC50: > 40 µM
[3]
  EC50: > 80 µM

## COc1cccc(OC)c1-c1cc(C(=O)NC2(C(=O)O)C3CC4CC(C3)CC2C4)nn1-c1ccc(C(=O)N(C)CCCN(C)C)cc1C(C)C (stereo unspecified)
[6]
  IC50: 0.0501 µM
[7]
  IC50: 0.00024 µM

## COc1cc2nc(-c3ccccc3)nc(N3CCN(c4ccccc4Cl)CC3)c2cc1OC
[1]
  EC50: > 40 µM
[2]
  EC50: > 80 µM
[3]
  EC50: > 80 µM

## COc1cc2nc(Cc3ccccc3)nc(N3CCN(c4ccccc4OC)CC3)c2cc1OC
[1]
  EC50: > 40 µM
[2]
  EC50: 14 µM
[3]
  EC50: > 80 µM

## COc1cc2nc(C3CC3)nc(N3CCNCC3)c2cc1OC
[1]
  EC50: > 40 µM
[2]
  EC50: > 80 µM
[3]
  EC50: > 80 µM

## CCCc1nc(N2CCN(c3ccccc3OC)CC2)c2cc(OC)c(OC)cc2n1
[1]
  EC50: > 40 µM
[2]
  EC50: 17 µM
[3]
  EC50: > 80 µM

## CCOc1cc2c(N3CCN(c4ccccc4F)CC3)nc(-c3ccccc3)nc2cc1OC
[1]
  EC50: > 40 µM
[2]
  EC50: > 80 µM
[3]
  EC50: > 80 µM

## COc1ccccc1N1CCN(c2nc(C3CCC3)nc3ccccc23)CC1
[1]
  EC50: > 40 µM
[2]
  EC50: 23 µM
[3]
  EC50: > 80 µM

## CCOc1cc2c(N3CCN(c4ccccc4)CC3)nc(-c3ccccc3)nc2cc1OC
[1]
  EC50: > 40 µM
[2]
  EC50: > 80 µM
[3]
  EC50: > 80 µM

## CCOc1ccccc1N1CCN(c2nc(C3CC3)nc3cc(OC)c(OC)cc23)CC1
[1]
  EC50: > 40 µM
[3]
  EC50: > 80 µM

## COc1cc2nc(C3CCCC3)nc(N3CCN(c4ccccc4OC)CC3)c2cc1OC
[1]
  EC50: > 40 µM
[3]
  EC50: > 80 µM

## COc1cc2nc(CCN3CCN(c4ccccc4OC)CC3)nc(N3CCN(c4ccccc4OC)CC3)c2cc1OC
[1]
  EC50: > 40 µM
[3]
  EC50: > 80 µM

## COc1cc2nc(C3CCC3)nc(N3CCN(c4ccccc4OC)CC3)c2cc1OC
[1]
  EC50: > 40 µM
[3]
  EC50: > 80 µM

## COc1cc2nc(C3CCC3)nc(N3CCN(c4ccccc4Cl)CC3)c2cc1OC
[1]
  EC50: > 40 µM
[2]
  EC50: 12 µM
[3]
  EC50: > 80 µM

## COc1cc2nc(-c3ccccc3)nc(N3CCN(c4ccccc4F)CC3)c2cc1OC
[1]
  EC50: > 40 µM
[2]
  EC50: > 80 µM
[3]
  EC50: > 80 µM

## COc1cc2nc(-c3ccccc3)nc(N3CCN(c4ccc(F)cc4)CC3)c2cc1OC
[1]
  EC50: > 40 µM
[3]
  EC50: > 80 µM

## COc1ccc2nc(C3CCC3)nc(N3CCN(c4ccccc4OC)CC3)c2c1
[1]
  EC50: > 40 µM
[3]
  EC50: > 80 µM

## COc1cc2nc(CC(C)C)nc(N3CCN(c4ccccc4OC)CC3)c2cc1OC
[1]
  EC50: > 40 µM
[3]
  EC50: > 80 µM

## COc1ccc2nc(C3CC3)nc(N3CCN(c4ccccc4OC)CC3)c2c1
[1]
  EC50: > 40 µM
[3]
  EC50: > 80 µM

## COc1cc2nc(CCN(C)C)nc(N3CCN(c4ccccc4OC)CC3)c2cc1OC
[1]
  EC50: > 40 µM
[2]
  EC50: > 80 µM
[3]
  EC50: > 80 µM

## COc1cc2nc(C3CC3)nc(N3CCN(Cc4ccc(C)cc4)CC3)c2cc1OC
[1]
  EC50: > 40 µM
[3]
  EC50: > 80 µM

## COc1cc2nc(C3CCC3)nc(N3CCN(c4ccccc4)CC3)c2cc1OC
[1]
  EC50: > 40 µM
[2]
  EC50: 12 µM
[3]
  EC50: > 80 µM

## COc1cc2nc(C3CC3)nc(N3CCN(C(=O)c4ccccc4)CC3)c2cc1OC
[1]
  EC50: > 40 µM
[3]
  EC50: > 80 µM

## COc1cc2nc(-c3ccccc3)nc(N3CCN(c4ccccc4)CC3)c2cc1OC
[1]
  EC50: > 40 µM
[2]
  EC50: > 80 µM
[3]
  EC50: > 80 µM

## CCOc1cc2c(N3CCN(c4ccccc4OC)CC3)nc(-c3ccccc3)nc2cc1OC
[1]
  EC50: > 40 µM
[2]
  EC50: > 80 µM
[3]
  EC50: > 80 µM

## COc1cc2nc(-c3ccccc3)nc(N3CCN(c4ccccc4OC)CC3)c2cc1OC
[1]
  EC50: > 40 µM
[3]
  EC50: > 80 µM

## COc1cc2nc(C3CC3)nc(N3CCN(C(=O)c4ccccc4OC)CC3)c2cc1OC
[1]
  EC50: > 40 µM
[3]
  EC50: > 80 µM

## COc1cc2nc(C)nc(N3CCN(c4ccccc4OC)CC3)c2cc1OC
[1]
  EC50: > 40 µM
[2]
  EC50: > 80 µM
[3]
  EC50: > 80 µM

## COc1ccc2c(N3CCN(c4ccccc4OC)CC3)nc(C3CCC3)nc2c1
[1]
  EC50: > 40 µM
[3]
  EC50: > 80 µM

## COc1cc2nc(CC3CC3)nc(N3CCN(c4ccccc4OC)CC3)c2cc1OC
[1]
  EC50: > 40 µM
[2]
  EC50: 14 µM
[3]
  EC50: > 80 µM

## COc1cc2nc(C3CC3)nc(N3CCN(S(=O)(=O)c4ccccc4)CC3)c2cc1OC
[1]
  EC50: > 40 µM
[2]
  EC50: > 80 µM
[3]
  EC50: > 80 µM

## COc1cc2nc(C3CCC3)nc(N3CCN(c4ccccn4)CC3)c2cc1OC
[1]
  EC50: > 40 µM
[2]
  EC50: 26 µM
[3]
  EC50: > 80 µM

## CCOc1cc2c(N3CCN(c4ccccc4[N+](=O)[O-])CC3)nc(-c3ccccc3)nc2cc1OC
[1]
  EC50: > 40 µM
[2]
  EC50: 75 µM
[3]
  EC50: > 80 µM

## COc1cc2nc(C(C)C)nc(N3CCN(c4ccccc4OC)CC3)c2cc1OC
[1]
  EC50: > 40 µM
[2]
  EC50: 8 µM
[3]
  EC50: > 80 µM

Source: ChEMBL document CHEMBL2429761, “Discovery of ML314, a Brain Penetrant Non-Peptidic β-Arrestin Biased Agonist of the Neurotensin NTR1 Receptor” (ACS Med Chem Lett, 2013)
